# Data: patent US20180201592A1, “2-AMINO-1,3,4-THIADIAZINE AND 2-AMINO-1,3,4-OXADIAZINE BASED ANTIFUNGAL AGENTS” (F2G Limited, priority 2015, published 2018)
# Like-named read-outs stand apart in the source and are kept apart here.
# Assays:
# C. albicans = experiment: Minimum inhibitory concentration, RPMI medium; format: cell-based; conditions: banded MIC grade; for MIC: Candida albicans, RPMI media
# Method in brief: (§1)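 Growth inhibition was judged from optical density at 485 nm per well after 24-48 hrs at 35° C. Test compound came from a 5 mg/mL DMSO stock, serially doubled in water before testing in RPMI 1640.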
# C. parapsilosis = experiment: Minimum inhibitory concentration, RPMI medium; format: cell-based; conditions: banded MIC grade; for MIC: Lodderomyces parapsilosis, RPMI media
# Method in brief: as §1
# C. tropicalis = experiment: Minimum inhibitory concentration, RPMI medium; format: cell-based; conditions: banded MIC grade; for MIC: Candida tropicalis, RPMI media
# Method in brief: as §1
# Aspergillus flavus = experiment: Minimum inhibitory concentration, YAG medium; format: cell-based; conditions: banded MIC grade; for MIC: Aspergillus flavus, YAG media
# Method in brief: (§2)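 Growth inhibition was read as absorbance at 485 nm after spores of Aspergillus spp. were exposed for 24 hrs at 35° C to doubling dilutions of the compound. Dilutions were made in water starting from a 5 mg/mL DMSO stock, and MIC values were expressed in mg/L.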
# Aspergillus terreus = experiment: Minimum inhibitory concentration, YAG medium; format: cell-based; conditions: banded MIC grade; for MIC: Aspergillus terreus, YAG media
# Method in brief: as §2
# Aspergillus niger = experiment: Minimum inhibitory concentration, YAG medium; format: cell-based; conditions: banded MIC grade; for MIC: Aspergillus niger, YAG media
# Method in brief: as §2
# A. terreus 49 = experiment: Minimum inhibitory concentration, YAG medium; format: cell-based, Aspergillus terreus; conditions: banded MIC grade; for MIC: Aspergillus terreus, 49, YAG media
# Method in brief: as §2
# A. fumigatus 210 = experiment: Minimum inhibitory concentration, YAG medium; format: cell-based, Aspergillus fumigatus; conditions: banded MIC grade; for MIC: Aspergillus fumigatus, 210, YAG media
# Method in brief: (§3)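 MICs (mg/L) reflect >70% inhibition of OD485 growth versus untreated control after 24 hrs at 35° C in YAG medium, spore inoculum 1-2×10^4 cfu/mL, drug range 50-0.05 mg/L.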
# Aspergillus fumigatus = experiment: Minimum inhibitory concentration, YAG medium; format: cell-based; conditions: banded MIC grade; for MIC: Aspergillus fumigatus, YAG media
# Method in brief: as §3
# [1] = read-out: MIC grade C. ALBICANS
# [2] = read-out: MIC grade, C. ALBICANS, RPMI media
# [3] = read-out: MIC grade C. PARAPSILOSIS
# [4] = read-out: MIC grade, C. PARAPSILOSIS, RPMI media
SMILES,"MIC grade, C. ALBICANS, RPMI media (C. albicans)","MIC grade, C. PARAPSILOSIS, RPMI media (C. parapsilosis)","MIC grade, C. TROPICALIS, RPMI media (C. tropicalis)","MIC grade, A. FLAVUS, YAG media (Aspergillus flavus)","MIC grade, A. TERREUS, YAG media (Aspergillus terreus)","MIC grade, A. NIGER, YAG media (Aspergillus niger)","MIC grade, A. TERREUS 49, YAG media (A. terreus 49)","MIC grade, A. FUMIGATUS 210, YAG media (A. fumigatus 210)","MIC grade, A. FUMIGATUS, YAG media (Aspergillus fumigatus)",MIC (C. albicans; [1]) [µg/mL],MIC (C. albicans; [2]) [µg/mL],MIC (C. parapsilosis; [3]) [µg/mL],MIC (C. parapsilosis; [4]) [µg/mL],MIC (C. tropicalis) [µg/mL],MIC (Aspergillus flavus) [µg/mL],MIC (Aspergillus terreus) [µg/mL],MIC (Aspergillus niger) [µg/mL],MIC (A. terreus 49) [µg/mL],MIC (A. fumigatus 210) [µg/mL],MIC (Aspergillus fumigatus) [µg/mL]
COc1ccc(CCCOCCC2=NN=C(N)SC2)cc1,2 (2: 5-20 mg/L),3 (3: 1-5 mg/L),2 (2: 5-20 mg/L),2 (2: 1-5 mg/L),2 (2: 1-5 mg/L),2 (2: 1-5 mg/L),2 (2: 1-5 mg/L),2 (2: 1-5 mg/L),2 (2: 1-5 mg/L),–,–,–,–,–,–,–,–,–,–,–
NC1=NN=C(CCOCCCc2ccccc2)CS1,4 (4: <1 mg/L),4 (4: <1 mg/L),3 (3: 1-5 mg/L),4 (4: <0.2 mg/L),4 (4: <0.2 mg/L),4 (4: <0.2 mg/L),4 (4: <0.2 mg/L),4 (4: <0.2 mg/L),4 (4: <0.2 mg/L),–,–,–,–,–,–,–,–,–,–,–
COCCCCOCCC1=NN=C(N)SC1,3 (3: 1-5 mg/L),3 (3: 1-5 mg/L),2 (2: 5-20 mg/L),3 (3: 0.2-1 mg/L),3 (3: 0.2-1 mg/L),3 (3: 0.2-1 mg/L),3 (3: 0.2-1 mg/L),3 (3: 0.2-1 mg/L),3 (3: 0.2-1 mg/L),–,–,–,–,–,–,–,–,–,–,–
CCCCCOc1ccc(CCC2=NN=C(N)SC2)cc1,1 (1: ≥20 mg/L),3 (3: 1-5 mg/L),3 (3: 1-5 mg/L),3 (3: 0.2-1 mg/L),2 (2: 1-5 mg/L),3 (3: 0.2-1 mg/L),3 (3: 0.2-1 mg/L),1 (1: ≥5 mg/L),1 (1: ≥5 mg/L),–,–,–,–,–,–,–,–,–,–,–
CCCCc1ccc(COCCC2=NN=C(N)SC2)cc1,2 (2: 5-20 mg/L),2 (2: 5-20 mg/L),2 (2: 5-20 mg/L),3 (3: 0.2-1 mg/L),3 (3: 0.2-1 mg/L),3 (3: 0.2-1 mg/L),2 (2: 1-5 mg/L),1 (1: ≥5 mg/L),1 (1: ≥5 mg/L),–,–,–,–,–,–,–,–,–,–,–
NC1=NN=C(CCCCOCc2ccccc2)CS1,4 (4: <1 mg/L),4 (4: <1 mg/L),4 (4: <1 mg/L),4 (4: <0.2 mg/L),4 (4: <0.2 mg/L),4 (4: <0.2 mg/L),4 (4: <0.2 mg/L),4 (4: <0.2 mg/L),4 (4: <0.2 mg/L),–,–,–,–,–,–,–,–,–,–,–
CCc1cccc(OCCCCCC2=NN=C(N)SC2)c1,4 (4: <1 mg/L),4 (4: <1 mg/L),4 (4: <1 mg/L),4 (4: <0.2 mg/L),4 (4: <0.2 mg/L),4 (4: <0.2 mg/L),4 (4: <0.2 mg/L),4 (4: <0.2 mg/L),4 (4: <0.2 mg/L),–,–,–,–,–,–,–,–,–,–,–
CCCCc1ccc(OCCCCCC2=NN=C(N)SC2)cc1,2 (2: 5-20 mg/L),3 (3: 1-5 mg/L),2 (2: 5-20 mg/L),2 (2: 1-5 mg/L),2 (2: 1-5 mg/L),3 (3: 0.2-1 mg/L),2 (2: 1-5 mg/L),2 (2: 1-5 mg/L),1 (1: ≥5 mg/L),–,–,–,–,–,–,–,–,–,–,–
CCc1ccc(OCCCCCC2=NN=C(N)SC2)cc1,4 (4: <1 mg/L),4 (4: <1 mg/L),4 (4: <1 mg/L),4 (4: <0.2 mg/L),4 (4: <0.2 mg/L),4 (4: <0.2 mg/L),4 (4: <0.2 mg/L),3 (3: 0.2-1 mg/L),3 (3: 0.2-1 mg/L),–,–,–,–,–,–,–,–,–,–,–
CCCCOC(=O)c1ccc(C2=NN=C(N)SC2)cc1,1 (1: ≥20 mg/L),1 (1: ≥20 mg/L),1 (1: ≥20 mg/L),3 (3: 0.2-1 mg/L),2 (2: 1-5 mg/L),3 (3: 0.2-1 mg/L),2 (2: 1-5 mg/L),3 (3: 0.2-1 mg/L),3 (3: 0.2-1 mg/L),–,–,–,–,–,–,–,–,–,–,–
CCOC(=O)CC1=NN=C(N)SC1,3 (3: 1-5 mg/L),3 (3: 1-5 mg/L),2 (2: 5-20 mg/L),2 (2: 1-5 mg/L),3 (3: 0.2-1 mg/L),3 (3: 0.2-1 mg/L),3 (3: 0.2-1 mg/L),2 (2: 1-5 mg/L),2 (2: 1-5 mg/L),–,–,–,–,–,–,–,–,–,–,–
"CN1N=C(N)SC=C1c1ccc(C#N)cc1 [4-(2-amino-4-methyl-1,3,4-thiadiazin-5-yl)benzonitrile]",–,–,–,–,–,–,–,–,–,< 1,1 to 5,1 to 5,1 to 5,5 to 20,< 0.2,< 0.2,< 0.2,< 0.2,< 0.2,0.2 to 1
"COCCCCCN1N=C(N)SC=C1C [4-(5-methoxypentyl)-5-methyl-1,3,4-thiadiazin-2-amine]",–,–,–,–,–,–,–,–,–,≥ 20,≥ 20,≥ 20,5 to 20,≥ 20,1 to 5,1 to 5,≥ 5,1 to 5,1 to 5,≥ 5
"Cc1ccc(C2=CSC(N)=NN2C)cc1 [4-methyl-5-(p-tolyl)-1,3,4-thiadiazin-2-amine]",–,–,–,–,–,–,–,–,–,< 1,5 to 20,≥ 20,1 to 5,≥ 20,0.2 to 1,< 0.2,0.2 to 1,< 0.2,< 0.2,< 0.2
